# Reference: patent US8871815B2, “Therapeutic compounds” (Signature Therapeutics, Inc., priority 2007, dated 2014)
# Like-named read-outs stand apart in the source and are kept apart here. Marks after values point to notes of the source that are not given here.
# How the values were obtained:
# [1] = system: rats; experiment: Separate rat study, bolus IV, 1% in cremaphor, sleep time; assay type: in vivo; conditions: for Sleep Time (duration of anesthesia): 7 mg/kg bolus IV
# [2] = system: Beagle dogs; experiment: Hemodynamic effects (blood pressure) in beagle dogs, bolus IV; assay type: in vivo, dog; conditions: 4 min after administration
# Procedure: The study was a crossover design. […] The MTD was defined as the dose that reduced mean arterial blood pressure (MAP) by 50% or to less than 50 millimeters of mercury (mmHg or mm Hg). All animals received supplemental oxygen and, if needed, ventilatory support after 4 min of apnea.
# Hemodynamic data, such as mean arterial pressure (MAP), were recorded at baseline, 1, 2, 4, 8, 15, 20 and 30 min. Compound 1 was administered at 5, 10, 15 and 30 mg/kg to 3, 6, 6 and 3 dogs respectively. […] Data were analyzed with a 2-way ANOVA followed by t-test with Bonferroni correction for multiple comparisons.
# [3] = system: Beagle dogs
# [4] = system: male Sprague-Dawley rats; experiment: Anesthetic effects in rats, bolus IV, Loss of Righting Reflex (LORR); assay type: in vivo, rat; conditions: 49 mg/kg bolus IV
# [5] = as above; assay type: in vivo, rat; conditions: male, Sprague-Dawley, rat, in vivo; bolus IV, rats; read-out: MTD (maximum tolerated dose)
# Procedure: (§1) Also measured was minimum dose to achieve LORR and maximum tolerated dose (MTD).
# (§2) The ranges of doses studied were 1.9, 2.3, 3.0, 7.0, 13.7, 14.0 and 15.2 mg/kg for Compound 1 and 3.5, 4.0, 7.0 and 14.0 mg/kg for […].
# [6] = system: male Sprague-Dawley rats; experiment: as above; assay type: in vivo, rat
# Procedure: as §1, §2
# [7] = system: ferrets; experiment: Anti-emetic activity in ferrets (morphine sulfate induced emesis); conditions: 6 ferrets
# Procedure: Male descented ferrets weighing 1.0-1.5 kg with vascular access ports in the jugular vein were housed on a 12/12-hour light/dark cycle under controlled temperature, with food and water provided ad libitum. On each study day, food was presented to ferrets one hour prior to dosing. Immediately prior to dosing, food and water were removed. A 1% Compound 1 formulation, prepared as described in Example 5 and formulated in accordance with Example 4, or […] was administered by IV infusion to the ferrets; see Wynn R L et al, 1993, Eur J Pharmacol 241, 42 re […] administration in ferrets. After administration of Compound 1 or […], animals were placed in clean, transparent cages (with lids) and left unrestrained for a 45-min observation period by an observer blinded to the specific treatment administered.
# Episodes of retching and/or vomiting were considered separate episodes when the interval between retches and/or vomits exceeded 5 sec.
# After termination of the infusion, 0.5 mg/kg morphine sulfate was administered subcutaneously and the ferrets were monitored for 45 min as described above. Six additional ferrets were administered subcutaneously 0.5 mg/kg morphine sulfate only.
# [8] = system: pigs; experiment: Hemodynamic effects, arterial blood gas and serum chemistry in pigs, IV infusion; assay type: in vivo, pig; conditions: IV infusion, pigs (Compound 1 0.384, propofol 0.750 mg/kg/min)
# Procedure: Anesthesia was induced with isoflurane. Intravascular access was obtained from an ear vein. Each pig was intubated and mechanically ventilated.
# ECG was monitored throughout the study. […] Body temperature was maintained at 37° C.
# Arterial blood gas samples from pigs infused with Compound 1 were taken and analyzed for blood gas and serum chemistry values; mean values are reported in Table 4.
# [9] = target: T1, phosphodiesterase 2 (PDE2) (Homo sapiens, UniProt O00408); experiment: Cerep Diversity Profile: enzymes, PDE2; assay type: biochemical; conditions: tested at 10 μM; read-out: inhibition of control binding, PDE2
# T1 construct: Cerep, Inc
# [10] = Aqueous phase concentration in lipid emulsion (ultrafiltration, LC/MS/MS); assay type: physicochemical; conditions: 1% lipid emulsion formulation
# Procedure: The concentration of Compound 1 in the aqueous phase (aqueous phase concentration) of a lipid emulsion formulation was determined.
# A one percent (1%) Compound 1 formulation was formulated in accordance with Example 4, Compound 1 being prepared as described in Example 5.
# [11] = in vivo; conditions: both, pig, in vivo, iv
# Procedure: (§3) Experiments were performed on commercial farm-bred swine of either sex (mean weight 33.6 kg). Anesthesia was induced with isoflurane. Intravascular access was obtained from an ear vein. Each pig was intubated and mechanically ventilated. Tissue oxygenation was monitored using continuous pulse oximetry placed on the tongue. Ventilation was monitored using an inspired/expired gas analyzer that measured oxygen, carbon dioxide, and potent inhalation agent concentrations. Ventilator settings were adjusted as needed to maintain steady state.
# (§4) ECG was monitored throughout the study. Arterial blood pressure was monitored through the cannulated left femoral artery. MAP, systolic and diastolic arterial pressures and heart rate were collected every 5 seconds. An internal jugular vein was cannulated with a pulmonary artery catheter for thermodilution estimates of cardiac output and blood temperature. Body temperature was maintained at 37° C. Instrumentation for EEG monitoring was accomplished using an adhesive electrode array over the fronto-occipital regions (Aspect Medical. Norwood, Mass., USA).
# (§5) Metabolic and hemodynamic parameters for each group were compared at multiple time points using an unpaired two-tailed Student t test. To account for multiple comparisons and maintain the probability of a type I error below 0.05, P values less than 0.025 were considered significant.
# [12] = system: pigs; experiment: in vivo; conditions: pig, in vivo, iv
# Procedure: as §3, §4, §5
# [13] = system: mongrel dogs; experiment: Anesthetic and hemodynamic effects in chronically instrumented mongrel dogs, total intravenous anesthesia; assay type: in vivo, dog; conditions: IV bolus then stepwise IV infusions 0.25-2.0 mg/kg/min
# Procedure: Assessments included hemodynamic performance parameters such as blood pressure, heart rate, and cardiac output as well as clinical chemistry parameters and EEG analysis.
# General anesthesia was induced in the dogs by IV administration of 7 mg/kg […], and the dogs were tracheally intubated and mechanically ventilated. General anesthesia was maintained using 2.2% end-tidal sevoflurane in oxygen. A thoracotomy was performed at the fifth left intercostal space, and heparin-filled catheters were placed in the proximal descending thoracic aorta (P50 pressure transducer Gould, Oxnard, Calif.), and in the right and left atria to provide IV access. An ultrasonic transit-time flow probe (T108, Transonic Systems, Ithaca, N.Y.) was placed around the ascending thoracic aorta. A […] Doppler flow probe (Model HDP-20-3.5, Triton Surgical Technologies, San Diego, Calif.) was placed around the left anterior descending coronary artery. Six MHz sonomicrometer crystals (Hartley, Houston, Tex.) were implanted in the subendocardium. A high fidelity micromanometer (P7, Konigsberg Instruments, Pasadena, Calif.) was inserted into the left ventricle. […]
# The dogs were fasted overnight. […] EEG was recorded continuously during the experiment. Arterial blood gas and chemistry measures included pH, pO2, sO2, pCO2, tCO2, carbonate, potassium, sodium, and base excess, and were measured immediately following blood draws using a blood gas and chemistry analyzer (ABL-505, Radiometer, Copenhagen). […] Following stabilization, baseline measurements of EEG, hemodynamics, ECG, and blood gases were recorded. Blood samples were drawn for PK and clinical chemistry, and pressure volume loops were generated and data recorded.
# Following induction, the dogs were tracheally intubated, and mechanically ventilated using 50% oxygen in nitrogen throughout the subsequent drug infusion and recovery periods. […] MAP was monitored continuously, and dosing was discontinued immediately if MAP decreased below 50 mmHg at any time or if the heart rate increased over 200 beats per minute. […]
# [14] = system: alpha2, NMDA, PCP, benzodiazepine or opioid receptors; experiment: Cerep Diversity Profile: other receptors; assay type: binding; conditions: tested at 10 μM
# [15] = morphine sulfate 0.5 mg/kg subcutaneously alone, 45 min observation
# [16] = 15 min IV infusion at 1 mg/kg/min, then 0.5 mg/kg morphine sulfate sc, 45 min
# T1 sequence (O00408 whole entry): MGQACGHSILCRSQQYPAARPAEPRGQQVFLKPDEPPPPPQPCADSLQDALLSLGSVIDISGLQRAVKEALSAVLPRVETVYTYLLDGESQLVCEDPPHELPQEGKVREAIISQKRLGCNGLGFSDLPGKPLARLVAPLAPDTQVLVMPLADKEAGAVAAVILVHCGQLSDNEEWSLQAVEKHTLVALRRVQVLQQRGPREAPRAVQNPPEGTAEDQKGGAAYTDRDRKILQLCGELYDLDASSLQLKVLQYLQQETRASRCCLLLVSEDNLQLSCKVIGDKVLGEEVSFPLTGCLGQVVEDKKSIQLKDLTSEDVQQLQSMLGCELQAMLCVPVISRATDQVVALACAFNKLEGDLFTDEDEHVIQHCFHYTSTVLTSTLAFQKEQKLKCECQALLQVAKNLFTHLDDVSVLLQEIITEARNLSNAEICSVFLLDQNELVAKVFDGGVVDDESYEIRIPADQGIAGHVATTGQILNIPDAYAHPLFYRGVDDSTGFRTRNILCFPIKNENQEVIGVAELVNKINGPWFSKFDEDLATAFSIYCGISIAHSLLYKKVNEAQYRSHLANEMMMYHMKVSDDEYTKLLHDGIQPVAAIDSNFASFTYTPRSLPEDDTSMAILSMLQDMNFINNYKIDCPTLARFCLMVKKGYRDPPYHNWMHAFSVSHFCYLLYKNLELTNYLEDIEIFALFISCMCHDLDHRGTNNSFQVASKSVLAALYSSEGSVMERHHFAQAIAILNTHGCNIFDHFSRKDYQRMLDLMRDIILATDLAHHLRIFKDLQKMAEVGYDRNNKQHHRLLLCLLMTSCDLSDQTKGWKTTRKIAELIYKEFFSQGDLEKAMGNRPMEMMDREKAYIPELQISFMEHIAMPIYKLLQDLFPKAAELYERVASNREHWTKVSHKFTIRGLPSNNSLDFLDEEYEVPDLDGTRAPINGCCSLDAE
SMILES,Sleep Time (duration of anesthesia) ([1]; rats) [min],MAP % change from baseline ([2]; 10 mg/kg bolus IV),MAP % change from baseline ([2]; 15 mg/kg bolus IV),MAP % change from baseline ([2]; 30 mg/kg bolus IV),"duration of anesthesia (sleep time) ([3]; 5 mg/kg bolus IV, dogs) [min]","duration of anesthesia (sleep time) ([3]; 10 mg/kg bolus IV, dogs) [min]","duration of anesthesia (sleep time) ([3]; 15 mg/kg bolus IV, dogs) [min]","duration of anesthesia (sleep time) ([3]; 30 mg/kg bolus IV, dogs) [min]","HD50 (dose required to cause 50% of the rats to lose righting reflex) ([6]; bolus IV, rats) [mg/kg]","HD7min (dose required to produce 7 minutes of anesthesia) ([6]; bolus IV, rats) [mg/kg]",further results
"CC[C@@H](C)c1cccc([C@@H](C)CC)c1O [(meso), (meso)-2,6-di-sec-butylphenol]",12.7,+5%,+15%,−16%,25,36,55,58,,,"deaths ([1]; 21 mg/kg, rats): One of 6 rats; duration of anesthesia ([1]; 21 mg/kg, remaining 5 rats): 34 min; quality of anesthesia (smoothness of induction, muscle tone, involuntary motion) ([3]; bolus IV, dogs): inferior"
"CC[C@H](C)c1cccc([C@@H](C)CC)c1O (single isomer, unassigned) [(S,S)]",6.3,+7%,+5%,0%,8,24,50,50,4,5.2,"deaths [4]: One of six rats died; MTD [5]: 42 mg/kg; TI (therapeutic index, ratio of MTD to HD7 min) ([6]; bolus IV, rats): 8.1"
CN1CC[C@]23c4c5ccc(O)c4O[C@H]2[C@@H](O)C=C[C@H]3[C@H]1C5.O=S(=O)(O)O [Morphine sulfate],,,,,,,,,,,"episodes of vomiting [7, 15]: 15; retches [7, 15]: 157"
"CC(C)c1cccc(C(C)C)c1O [Propofol, 2,6-diisopropylphenol, reference compound]",7.1,−22%,−32%,−66%*,,,,,3.8,7.0,"lowest HR measured [8]: 88±6 bpm; inhibition at 10 µM [9]: > 20%; aqueous phase concentration [10]: 6.28 ± 0.41 µg/mL; AUC [11]: 1810 ng·h/mL; IV infusion time producing maximal suppression of BIS [12]: 9.4 ± 1.9 min; LORR produced ([6]; 3.5 mg/kg bolus IV, 6 rats): no LORR in 4 of 6 rats; Cardiac output versus baseline [13]: significantly reduced from baseline; retches [7, 16]: 47; vomits [7, 16]: 3; effects at alpha2, NMDA, PCP, benzodiazepine or opioid receptors [14]: No significant effects; dogs reaching the MTD (MAP reduced by 50% or to less than 50 mmHg) ([3]; dog, in vivo, iv): Two of 3 dogs"
